Reference: US10981932B2, “Macrocyclic indole derivatives” (Bayer Aktiengesellschaft, priority 2016, dated 2021)
Read-outs that look alike come from different tables or passages of the source.

How the values were obtained:
MCL-1 = MCL-1 (Homo sapiens, UniProt Q07820); assay: Protein-protein interaction assay MCL-1/Noxa BH3 peptide (MCL-1 assay), TR-FRET; type: binding; conditions: MBP-MCL-1 / Noxa BH3-derived peptide, median
Summary of the method: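 Steady-state competition, MCL-1/Noxa BH3, TR-FRET readout; 1 nM MBP-MCL-1, 11-point dose series 0.1 nM–20 μM; overnight 4 °C equilibration; 4-parameter IC50.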

SUDHL5 [1] = assay: Induction of caspase-3/7 activity (Caspase-Glo 3/7), SUDHL5; type: cell-based; conditions: caspase-3/7 induction, SUDHL5 cells, 3 h treatment, median
Summary of the method: (§1)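 A 3 h, 37 °C compound incubation precedes the Caspase-Glo 3/7 read. After subtracting medium-only signal, EC50s are fitted against the reference compound's maximal caspase induction.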

SUDHL10 [2] = assay: Induction of caspase-3/7 activity (Caspase-Glo 3/7), SUDHL10; type: cell-based; conditions: caspase-3/7 induction, SUDHL10 cells, 3 h treatment, median
Summary of the method: as §1

SUDHL5 [3] = assay: Anti-proliferative effect (CellTiter-Glo, 72 h), SUDHL5; type: cell-based; conditions: SUDHL5 cells, antiproliferation, median, read-out: Antiproli SUDHL5 [M] (median)
Summary of the method: (§2)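 Plate cells alongside a separate day 0 reference plate. Read the reference plate at once with CellTiter-Glo. Incubate treated cells 72 h at 37 °C, then read them the same way by luminescence.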

A2780 = assay: Anti-proliferative effect (CellTiter-Glo, 72 h), A2780; type: cell-based; conditions: A2780 cells, median, read-out: IC50 antiproliferation assay A2780 [M] (median)
Summary of the method: as §2

MV-4-11 = assay: Anti-proliferative effect (CellTiter-Glo, 72 h), MV-4-11; type: cell-based; conditions: MV-4-11 cells, median, read-out: IC50 antiproliferation assay MV-4-11 [M] (median)
Experimental: Assessment of the Anti-Proliferative Effect of Compounds in Different Cell Lines
The impact of compounds on the proliferation of different cell lines was assessed using the CellTiter-Glo® Luminescent Cell Viability reagent from Promega (G7573). Of note, SUDHL10 and SUDHL5 (DLBCL), NCI-H929 (Multiple Myeloma), A2780 (ovarian carcinoma) as well as MV-4-11(AML) cells are sensitive to MCL-1 inhibition.
In parallel, cells were plated in a reference (day 0) plate for time zero determination.
Rim wells were excluded. The cells were incubated for 72 h hours in a humidified incubator at 37° C. The day 0 plate was measured by adding 30 μl/well of CTG solution (CellTiter-Glo® Luminescent Cell Viability reagent, Promega G7573) to time zero wells in the reference plate followed by a 10 minutes incubation and luminescence reading at 0.1 ms, using the PHERAstar FS microplate reader (BMG Labtech).
After 72 h incubation, the treated plates were measured in the same way as the day 0 plate mentioned above.

SUDHL5 [4] = assay: Induction of cytotoxicity (CellTiter-Glo, 5 h), SUDHL5
SUDHL10 [5] = assay: Induction of cytotoxicity (CellTiter-Glo, 5 h), SUDHL10
[6] = Homo sapiens, SU-DHL-5, 72 h, 72 h incubation
[7] = Homo sapiens, SU-DHL-5, 5 h, read-out: Cytotox SUDHL5 [M] (median), SUDHL5 cells, cytotoxicity induction, CellTiter-Glo, 5 h incubation, median
[8] = Homo sapiens, SU-DHL10, 5 h, read-out: Cytotox SUDHL10 [M] (median), SUDHL10 cells, cytotoxicity induction, CellTiter-Glo, 5 h incubation, median
[9] = read-out: Cytotox SUDHL10 [M] (median), SUDHL10 cells, cytotoxicity induction, CellTiter-Glo, 5 h incubation, median
[10] = Homo sapiens, SU-DHL-5, 72 h, 72 h
[11] = Homo sapiens, SU-DHL-5, 5 h, read-out: Cytotox SUDHL5 [M] (median), SUDHL5 cells, cytotoxicity induction, CellTiter-Glo, 5 h, median
[12] = Homo sapiens, SU-DHL10, 5 h, read-out: Cytotox SUDHL10 [M] (median), SUDHL10 cells, cytotoxicity induction, CellTiter-Glo, 5 h, median

MCL-1, sequence (Q07820 whole entry): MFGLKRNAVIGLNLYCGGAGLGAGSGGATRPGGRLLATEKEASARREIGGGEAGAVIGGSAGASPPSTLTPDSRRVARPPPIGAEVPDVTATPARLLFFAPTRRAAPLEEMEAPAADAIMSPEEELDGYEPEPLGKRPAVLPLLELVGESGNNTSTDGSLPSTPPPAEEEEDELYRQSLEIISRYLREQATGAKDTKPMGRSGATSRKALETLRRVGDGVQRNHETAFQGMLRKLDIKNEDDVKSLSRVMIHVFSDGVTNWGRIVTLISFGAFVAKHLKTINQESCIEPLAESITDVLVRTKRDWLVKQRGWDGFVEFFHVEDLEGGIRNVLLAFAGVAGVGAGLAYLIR

| Compound | IC50 (MCL-1) | EC50 (SUDHL5 [1]; Homo sapiens, SU-DHL-5, 3 h) | EC50 (SUDHL10 [2]; Homo sapiens, SU-DHL10, 3 h) | IC50 (SUDHL5 [3]; [6]) | IC50 (A2780; Homo sapiens, A2780, 72 h) | IC50 (MV-4-11; Homo sapiens, MV4-11, 72 h) | IC50 (SUDHL5 [4]; [7]) | IC50 (SUDHL10 [5]; [8]) | EC50 (SUDHL10 [2]) | IC50 (SUDHL10 [5]; [9]) | IC50 (SUDHL5 [3]; [10]) | IC50 (A2780) | IC50 (SUDHL5 [4]; [11]) | IC50 (SUDHL10 [5]; [12]) | EC50 (SUDHL5 [1]) | IC50 (SUDHL5 [3]; 72 h incubation) | IC50 (MV-4-11) | IC50 (SUDHL5 [4]; read-out: Cytotox SUDHL5 [M] (median), SUDHL5 cells, cytotoxicity induction, CellTiter-Glo, 5 h incubation, median) |
| --- | --- | --- | --- | --- | --- | --- | --- | --- | --- | --- | --- | --- | --- | --- | --- | --- | --- | --- |
| CN1CCCCn2c(C(=O)O)c(CCCOc3cccc4ccccc34)c3cccc(c32)-c2c(CC(F)(F)F)nn(C)c2C1 (racemic) [Example 222, (rac)-1,14-dimethyl-7-[3-(naphthalen-1-yloxy)propyl]-3-(2,2,2-trifluoroethyl)-10,11,12,13,14,15-hexahydro-1H-pyrazolo[3′,4′:8,9][1,6]diazacycloundecino[10,11,1-hi]indole-8-carboxylic Acid] | 0.00597 µM | 14.4 µM | 18.2 µM | 9.85e-06 M | 2.46e-05 M | 7.87e-06 M | 1.15e-05 M | 2.01e-05 M |  |  |  |  |  |  |  |  |  |  |
| CN1CCCCn2c(C(=O)O)c(CCCOc3cccc4ccccc34)c3cccc(c32)-c2c(/C=C/F)nn(C)c2C1 (racemic) [Example 225, (rac)-3-[(E)-2-fluoroethenyl]-1,14-dimethyl-7-[3-(naphthalen-1-yloxy)propyl]-10,11,12,13,14,15-hexahydro-1H-pyrazolo[3′,4′:8,9][1,6]diazacycloundecino[10,11,1-hi]indole-8-carboxylic Acid] | 0.0032 µM | 16.5 µM | 19.6 µM | 7.21e-06 M | 2.33e-05 M | 1.85e-05 M | 1.32e-05 M | 3.27e-05 M | > 33 µM | > 3.3e-05 M |  |  |  |  |  |  |  |  |
| CCc1c2c(nn1C)COCCCCn1c(C(=O)O)c(CCCOc3cccc4c3CCCC4)c3cccc-2c31 (racemic) [Example 290, (rac)-12-ethyl-11-methyl-1-(3-((5,6,7,8-tetrahydronaphthalen-1-yl)oxy)propyl)-4,5,6,7,9,11-hexahydropyrazolo[4′,3′:9,10][1]oxa[6]azacycloundecino[8,7,6-hi]indole-2-carboxylic Acid] | 0.0028 µM | 3.38 µM | 13.6 µM |  | > 3.3e-05 M | 9.57e-06 M |  |  |  |  | 5.06e-06 M | 2.62e-05 M | 3.61e-06 M | 1.19e-05 M |  |  |  |  |
| CCc1nn(C)c2c1-c1cccc3c(CCCOc4cccc5c4CCCC5)c(C(=O)O)n(c13)CCCCOC2 (racemic) [Example 291, (rac)-12-ethyl-10-methyl-1-(3-((5,6,7,8-tetrahydronaphthalen-1-yl)oxy)propyl)-4,5,6,7,9,10-hexahydropyrazolo[4′,3′:9,10][1]oxa[6]azacycloundecino[8,7,6-hi]indole-2-carboxylic Acid] | 0.00238 µM | 8.51 µM | 32 µM |  | > 3.3e-05 M | 1.82e-05 M |  |  | > 33 µM |  | 8.71e-06 M |  | 8.6e-06 M | > 3.3e-05 M |  |  |  |  |
| Cc1ccc2c(CCCOc3cccc4cc(F)ccc34)c(C(=O)O)n3c2c1-c1c(nn(CCN2CCOCC2)c1C)COCCCC3 (racemic) [Example 292, (rac)-7-{3-[(6-fluoronaphthalen-1-yi)oxy]propyl}-3,4-dimethyl-2-[2-(morpholin-4-yl)ethyl]-2,10,11,12,13,15-hexahydropyrazolo[4′,3′:9,10][1,6]oxazacycloundecino[8,7,6-hi]indole-8-carboxylic Acid] | 0.00184 µM | 0.671 µM | 1.21 µM |  | 1.58e-05 M | 8.52e-06 M |  |  |  |  | 1.59e-06 M |  | 1.13e-06 M | 1.52e-06 M |  |  |  |  |
| Cc1c2c(nn1C)COCCCCn1c(C(=O)O)c(CCCOc3cccc4cc(Cl)ccc34)c3cccc-2c31 (racemic) [Example 295, (rac)-7-{3-[(6-chloronaphthalen-1-yl)oxy]propyl}-2,3-dimethyl-2,10,11,12,13,15-hexahydropyrazolo[4′,3′:9,10][1,6]oxazacycloundecino[8,7,6-hi]indole-8-carboxylic Acid] | 0.00528 µM | 17 µM | 19 µM |  | 1.72e-05 M | 1.58e-05 M |  |  |  |  | 9.86e-06 M |  | 1.61e-05 M | 1.8e-05 M |  |  |  |  |
| CCc1nn(C)c2c1-c1cccc3c(CCCOc4cccc5c(F)cccc45)c(C(=O)O)n(c13)CCCCOC2 (racemic) [Example 298, (rac)-3-ethyl-7-{3-[(5-fluoronaphthalen-1-yl)oxy]propyl}-1-methyl-1,10,11,12,13,15-hexahydropyrazolo[4′,3′:9,10][1,6]oxazacycloundecino[8,7,6-hi]indole-8-carboxylic Acid] | 0.0017 µM | 8.78 µM | 20.5 µM |  | 2.66e-05 M | 9.4e-06 M |  |  |  |  | 1.09e-05 M |  | 9.1e-06 M | 2.27e-05 M |  |  |  |  |
| Cc1c2c(nn1C)COCCCCn1c(C(=O)O)c(CCCOc3cccc4cc(F)ccc34)c3cccc-2c31 (racemic) [Example 301, (rac)-7-{3-[(6-fluoronaphthalen-1-yl)oxy]propyl}-2,3-dimethyl-2,10,11,12,13,15-hexahydropyrazolo[4′,3′:9,10][1,6]oxazacycloundecino[8,7,6-hi]indole-8-carboxylic Acid] | 0.00143 µM | 1.19 µM | 3.29 µM |  | 1.56e-05 M | 5.99e-06 M |  |  |  |  | 2e-06 M |  | 1.6e-06 M | 3.5e-06 M |  |  |  |  |
| CCc1nn(C)c2c1-c1cccc3c(CCCOc4cccc5cc(Cl)ccc45)c(C(=O)O)n(c13)CCCCOC2 (racemic) [Example 304, (rac)-11-(3-((6-chloronaphthalen-1-yl)oxy)propyl)-12-ethyl-10-methyl-4,5,6,7,9,10-hexahydropyrazolo[4′,3′:9,10][1,6]oxaazacycloundecino[8,7,6-hi]indole-2-carboxylic Acid] | 0.0105 µM | > 33 µM | > 33 µM |  | 1.34e-05 M | 3.13e-05 M |  |  |  |  | 9.84e-06 M |  | > 3.3e-05 M | > 3.3e-05 M |  |  |  |  |
| Cc1ccc2c(OCCCc3c(C(=O)O)n4c5c(cccc35)-c3c(nn(C)c3C)COCCCC4)cccc2c1 (racemic) [Example 307, (rac)-11,12-dimethyl-1-(3-((6-methylnaphthalen-1-yl)oxy)propyl)-4,5,6,7,9,11-hexahydropyrazolo[4′,3′:9,10][1,6]oxaazacycloundecino[8,7,6-hi]indole-2-carboxylic Acid] | 0.0129 µM | > 33 µM | > 33 µM |  | 1.76e-05 M | 1.84e-05 M |  |  |  |  | 1.19e-05 M |  | > 3.3e-05 M | > 3.3e-05 M |  |  |  |  |
| CN1CCCn2c(C(=O)O)c(CCCOc3cccc4ccccc34)c3cccc(c32)-c2c(nn(C)c2COc2ccc(N3CCN(S(=O)(=O)N(C)C)CC3)cc2)C1 (single isomer, unassigned; enantiomer 2) [Example 1-113, 11-({4-[4-(Dimethylsulfamoyl)piperazin-1-yl]phenoxy}methyl)-7,10-dimethyl-1-[3-(1-naphthyloxy)propyl]-4,5,6,7,8,10-hexahydropyrazolo[3′,4′:7,8][1,5]diazecino[9,10,1-hi]indole-2-carboxylic Acid (Enantiomer 2)] | 0.0277 µM |  |  |  |  |  |  |  | 9.08 µM | 2.06e-05 M |  |  |  |  | 10.5 µM | 1.05e-05 M | 1.2e-05 M | 1.31e-05 M |
